Measurements as given in PubChem BioAssay AID192 (DTP/NCI, 2004).
Several values for one entry are separate records, joined by “and”; a condition that tells them apart may be missing. Identical values can stand only once. Inconclusive results and toxic doses are left out. Rule for the calls: active = survival T/C of 150% or more; inactive = T/C below 125% in these data.

System: BDF1 mice, B16 melanoma ip, median survival T/C
Assay: NCI In Vivo Anticancer Drug Screen. Data for tumor model B16 Melanoma (intraperitoneal) in B6D2F1 (BDF1) mice
Settings: endpoint: median survival time, higher = longer survival
How it was run: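 Compounds were tested in mice carrying transplantable tumors. Survival or tumor size was recorded, and each value is the treated-group measurement (T) divided by that of the vehicle-treated control group (C).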

[1] = dose: 6.25 mg/kg/injection, schedule: Q01DX009 (ip), vehicle: saline
[2] = dose: 12.5 mg/kg/injection, schedule: Q01DX009 (ip), vehicle: saline
[3] = dose: 25.0 mg/kg/injection, schedule: Q01DX009 (ip), vehicle: saline
[4] = dose: 0.5 mg/kg/injection, schedule: Q01DX009 (ip), vehicle: saline
[5] = dose: 2.0 mg/kg/injection, schedule: Q01DX009 (ip), vehicle: saline
[6] = dose: 25.0 mg/kg/injection, schedule: Q01DX009 (ip), vehicle: Klucel (hydroxypropylcellulose) (HPC)
[7] = dose: 100.0 mg/kg/injection, schedule: Q01DX009 (ip), vehicle: Klucel (hydroxypropylcellulose) (HPC)
[8] = dose: 100.0 mg/kg/injection, schedule: Q01DX009 (ip), vehicle: saline with Tween-80
[9] = dose: 50.0 mg/kg/injection, schedule: Q01DX009 (ip), vehicle: saline
[10] = dose: 100.0 mg/kg/injection, schedule: Q01DX009 (ip), vehicle: saline
[11] = dose: 200.0 mg/kg/injection, schedule: Q01DX009 (ip), vehicle: saline

Measured: T/C

c1ccc(C[n+]2ccc3ccccc3c2)cc1
inactive: [1] 105 % of control and 113 % of control | dose: 6.25 mg/kg/injection, schedule: Q04DX003 (ip), vehicle: saline with Tween-80 95 % of control | [2] 117 % of control | dose: 12.5 mg/kg/injection, schedule: Q04DX003 (ip), vehicle: saline with Tween-80 107 % of control | [3] 108 % of control and 110 % of control | dose: 25.0 mg/kg/injection, schedule: Q04DX003 (ip), vehicle: saline with Tween-80 100 % of control

CC(=O)OCC12CCC(C)=CC1OC1C(=O)CC2(C)C12CO2 (centres undefined)
inactive: [4] 101 % of control | dose: 1.0 mg/kg/injection, schedule: Q01DX009 (ip), vehicle: saline 110 % of control | [5] 113 % of control | dose: 4.0 mg/kg/injection, schedule: Q01DX009 (ip), vehicle: saline 98 % of control

Oc1c(Cl)cc(Cl)cc1/C=N/NC(=S)Nc1cc(C(F)(F)F)cc(C(F)(F)F)c1
inactive: dose: 50.0 mg/kg/injection, schedule: Q01DX009 (ip), vehicle: olive oil, sesame oil, peanut oil 92 % of control | dose: 200.0 mg/kg/injection, schedule: Q01DX009 (ip), vehicle: olive oil, sesame oil, peanut oil 96 % of control

COc1ccc(CCNC(C)=O)cc1OC
inactive: [6] 91 % of control | dose: 50.0 mg/kg/injection, schedule: Q01DX009 (ip), vehicle: Klucel (hydroxypropylcellulose) (HPC) 89 % of control

CN(C)CCCN1c2ccccc2Sc2ccc(C(F)(F)F)cc21
inactive: dose: 0.06 mg/kg/injection, schedule: Q01DX009 (ip), vehicle: saline 89 % of control | dose: 0.25 mg/kg/injection, schedule: Q01DX009 (ip), vehicle: saline 97 % of control | [4] 109 % of control | [5] 104 % of control | dose: 8.0 mg/kg/injection, schedule: Q01DX009 (ip), vehicle: saline 109 % of control

COc1cc([NH-])c([NH-])cc1OC.[Cl][Pt+2][Cl]
inactive: dose: 10.0 mg/kg/injection, schedule: Q01DX009 (ip), vehicle: saline with Tween-80 97 % of control | dose: 20.0 mg/kg/injection, schedule: Q01DX009 (ip), vehicle: saline with Tween-80 104 % of control | dose: 40.0 mg/kg/injection, schedule: Q01DX009 (ip), vehicle: saline with Tween-80 103 % of control | dose: 80.0 mg/kg/injection, schedule: Q01DX009 (ip), vehicle: saline with Tween-80 104 % of control | dose: 160.0 mg/kg/injection, schedule: Q01DX009 (ip), vehicle: saline with Tween-80 94 % of control

CCCCCCCCCCCCCCCC(C)(C)O
inactive: [7] 100 % of control | dose: 200.0 mg/kg/injection, schedule: Q01DX009 (ip), vehicle: Klucel (hydroxypropylcellulose) (HPC) 100 % of control | dose: 400.0 mg/kg/injection, schedule: Q01DX009 (ip), vehicle: Klucel (hydroxypropylcellulose) (HPC) 86 % of control

NC(=S)N/N=C/c1ccc(OC(=O)COc2ccc(Cl)cc2)cn1
inactive: dose: 25.0 mg/kg/injection, schedule: Q01DX009 (ip), vehicle: saline with Tween-80 111 % of control | dose: 50.0 mg/kg/injection, schedule: Q01DX009 (ip), vehicle: saline with Tween-80 116 % of control | [8] 117 % of control

C=CCNC(=O)NCC=C
inactive: [3] 114 % of control | [9] 109 % of control | [10] 95 % of control | [11] 100 % of control

NNC(=S)N/N=C/c1ccc([N+](=O)[O-])s1
inactive: [6] 88 % of control | [7] 89 % of control

O=C(O)c1cccc2c1S(=O)(=O)c1ccccc1C2=O
inactive: dose: 75.0 mg/kg/injection, schedule: Q01DX009 (ip), vehicle: Klucel (hydroxypropylcellulose) (HPC) 100 % of control | dose: 150.0 mg/kg/injection, schedule: Q01DX009 (ip), vehicle: Klucel (hydroxypropylcellulose) (HPC) 97 % of control | dose: 300.0 mg/kg/injection, schedule: Q01DX009 (ip), vehicle: Klucel (hydroxypropylcellulose) (HPC) 100 % of control

Cc1ccc2c(ccc(/C=C\c3cc(C)c4cccnc4c3O)[n+]2C)c1
inactive: dose: 1.56 mg/kg/injection, schedule: Q01DX009 (ip), vehicle: saline 95 % of control | dose: 3.13 mg/kg/injection, schedule: Q01DX009 (ip), vehicle: saline 95 % of control | [1] 91 % of control

CCC1CN2CCc3cc(OC)c(OC)cc3C2CC1CC1c2cc(OC)c(OC)cc2CCN1C(=O)C(Cc1c[nH]c2ccccc12)NC(=O)OC(C)(C)C (centres undefined)
inactive: dose: 8.0 mg/kg/injection, schedule: Q04DX003 (ip), vehicle: saline with Tween-80 102 % of control | dose: 16.0 mg/kg/injection, schedule: Q04DX003 (ip), vehicle: saline with Tween-80 102 % of control | dose: 32.0 mg/kg/injection, schedule: Q04DX003 (ip), vehicle: saline with Tween-80 100 % of control | dose: 64.0 mg/kg/injection, schedule: Q04DX003 (ip), vehicle: saline with Tween-80 110 % of control | dose: 128.0 mg/kg/injection, schedule: Q04DX003 (ip), vehicle: saline with Tween-80 89 % of control

NC(=S)N/N=C/c1ccc(OC(F)(F)F)cn1
inactive: dose: 1.56 mg/kg/injection, schedule: Q01DX009 (ip), vehicle: saline with Tween-80 92 % of control | dose: 3.13 mg/kg/injection, schedule: Q01DX009 (ip), vehicle: saline with Tween-80 94 % of control | dose: 6.25 mg/kg/injection, schedule: Q01DX009 (ip), vehicle: saline with Tween-80 89 % of control | dose: 12.5 mg/kg/injection, schedule: Q01DX009 (ip), vehicle: saline with Tween-80 95 % of control

CCOC(=O)c1[nH]c(C)nc1/N=N/N(C)C
inactive: [2] 111 % of control | [3] 110 % of control | [9] 111 % of control | [10] 123 % of control

CCCCC(C(=O)OCC)C(CCC1CCCCC1)(C(=O)OCC)C(=O)OCC (centres undefined)
inactive: dose: 12.5 mg/kg/injection, schedule: Q04DX003 (ip), vehicle: Klucel (hydroxypropylcellulose) (HPC) 90 % of control | dose: 25.0 mg/kg/injection, schedule: Q04DX003 (ip), vehicle: Klucel (hydroxypropylcellulose) (HPC) 99 % of control | dose: 50.0 mg/kg/injection, schedule: Q04DX003 (ip), vehicle: Klucel (hydroxypropylcellulose) (HPC) 87 % of control and 89 % of control

O=C1C=CC(=O)c2c(Cl)ccc(O)c21
inactive: dose: 0.63 mg/kg/injection, schedule: Q01DX009 (ip), vehicle: Klucel (hydroxypropylcellulose) (HPC) 90 % of control | dose: 1.25 mg/kg/injection, schedule: Q01DX009 (ip), vehicle: Klucel (hydroxypropylcellulose) (HPC) 95 % of control

CCCCCCCCOC(=O)Nc1ccc(OCC)cc1
inactive: dose: 1.5 mg/kg/injection, schedule: Q01DX009 (ip), vehicle: saline with Tween-80 107 % of control | dose: 3.0 mg/kg/injection, schedule: Q01DX009 (ip), vehicle: saline with Tween-80 96 % of control | dose: 6.0 mg/kg/injection, schedule: Q01DX009 (ip), vehicle: saline with Tween-80 96 % of control

O=C(Nc1ccc(C(=O)Nc2cc(S(=O)(=O)O)cc3cc(S(=O)(=O)O)cc(O)c23)cc1)c1ccccc1
inactive: [8] 94 % of control | dose: 200.0 mg/kg/injection, schedule: Q01DX009 (ip), vehicle: saline with Tween-80 89 % of control | dose: 400.0 mg/kg/injection, schedule: Q01DX009 (ip), vehicle: saline with Tween-80 89 % of control

Cc1cc(C)[nH]c(=S)n1
inactive: [9] 95 % of control | [10] 95 % of control | [11] 106 % of control
